Data from article PMC9196953 (Drug development research, 1999).
Where two headings read alike, the source gives them in different places.

Key:
[1] = molecular target: T1, rat A1 receptors (Rattus norvegicus, UniProt P25099); experiment: Displacement of [3H]R-PIA binding to A1 receptors in rat brain membranes; conditions: read-out: Ki rA1
T1 construct: to A1 receptors from rat cerebral cortical membranes; from tissue; host or cells: rat cerebral cortical membranes
T1 sequence (P25099 1-326): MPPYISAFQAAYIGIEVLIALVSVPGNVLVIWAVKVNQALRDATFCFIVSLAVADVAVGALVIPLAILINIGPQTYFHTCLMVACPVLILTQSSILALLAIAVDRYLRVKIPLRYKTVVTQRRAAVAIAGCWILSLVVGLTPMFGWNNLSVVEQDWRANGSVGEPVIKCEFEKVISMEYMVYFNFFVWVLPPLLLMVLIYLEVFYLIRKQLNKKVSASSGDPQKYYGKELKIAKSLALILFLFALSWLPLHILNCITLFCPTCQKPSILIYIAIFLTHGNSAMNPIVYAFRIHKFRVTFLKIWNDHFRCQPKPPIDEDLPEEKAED
Description: (§1) All nonradioactive compounds were initially dissolved in DMSO and diluted with buffer to the final concentration, where the amount of DMSO never exceeded 2%. Incubations were terminated by rapid filtration over Whatman GF/B filters using a Brandell cell harvester. The tubes were rinsed three times with 3 mL buffer each.
(§2) At least six different concentrations of competitor, spanning 3 orders of magnitude adjusted appropriately for the IC50 value of each compound, were used. IC50 values, calculated with the nonlinear regression method implemented in Graph-Pad Prism (San Diego, CA) were converted to apparent Ki values as described by [Linden [1982]]. Hill coefficients of the tested compounds were in the range of 0.8–1.1.
(§3) At A2B receptors, two radioligand binding assays (Table 1) were used. Ki values of xanthine derivatives were determined in displacement of binding of the non-selective radioligands […], 8 (4-(2-[7-amino-2-{furyl}{1,2,4}triazolo{2,3-a}{1,3,5}tr nzyl)-8-phenyloxyacetate-1-propyl-xanthine), at human A2B receptors expressed in HEK-293 cell membranes [[Linden and Jacobson, 1998]]. In order to evaluate selectivity, selected derivatives were subjected to standard binding assays at A1, A2A, and A3 receptors. The initial screening utilized rat brain A1/A2A receptors (with radioligands [^3H]R-PIA and [^3H]CGS-21680), and selected compounds were examined at the recombinant human subtypes (Table 1), using [^3H]CPX ([^3H]8-cyclopentyl-1,3-dipropylxanthine) and ^125I-ZM 241385, ^125I-4-(2-[7-amino-2-[2-furyl][1,2,4]triazolo[2,3-a][1,3,5]triazin-5-yl-amino]ethyl)phenol) [[Palmer et al., 1996]].

[2] = molecular target: T2, human A3 receptors (Homo sapiens, UniProt P0DMS8); experiment: Displacement of [125I]AB-MECA binding at human A3 receptors expressed in HEK cells; conditions: read-out: Ki hA3
T2 construct: expressed in transfected cells; host or cells: HEK-293
T2 sequence (P0DMS8 1-318): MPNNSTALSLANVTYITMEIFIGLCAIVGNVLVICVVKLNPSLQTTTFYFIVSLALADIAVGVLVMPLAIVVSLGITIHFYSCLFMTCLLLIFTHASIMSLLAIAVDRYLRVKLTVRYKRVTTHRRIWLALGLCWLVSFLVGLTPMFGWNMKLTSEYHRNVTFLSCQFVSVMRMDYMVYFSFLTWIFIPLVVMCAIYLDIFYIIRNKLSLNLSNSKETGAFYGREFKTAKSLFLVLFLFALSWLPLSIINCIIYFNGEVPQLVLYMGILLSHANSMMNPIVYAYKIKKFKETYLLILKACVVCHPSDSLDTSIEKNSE
Description: as §3

[3] = molecular target: T3, rat A2A receptors (Rattus norvegicus, UniProt P30543); experiment: Displacement of [3H]CGS 21680 binding to A2A receptors in rat striatal membranes; conditions: read-out: Ki rA2A
T3 construct: to A2A receptors from rat striatal membranes; from tissue; host or cells: rat striatal membranes
T3 sequence (P30543 whole entry): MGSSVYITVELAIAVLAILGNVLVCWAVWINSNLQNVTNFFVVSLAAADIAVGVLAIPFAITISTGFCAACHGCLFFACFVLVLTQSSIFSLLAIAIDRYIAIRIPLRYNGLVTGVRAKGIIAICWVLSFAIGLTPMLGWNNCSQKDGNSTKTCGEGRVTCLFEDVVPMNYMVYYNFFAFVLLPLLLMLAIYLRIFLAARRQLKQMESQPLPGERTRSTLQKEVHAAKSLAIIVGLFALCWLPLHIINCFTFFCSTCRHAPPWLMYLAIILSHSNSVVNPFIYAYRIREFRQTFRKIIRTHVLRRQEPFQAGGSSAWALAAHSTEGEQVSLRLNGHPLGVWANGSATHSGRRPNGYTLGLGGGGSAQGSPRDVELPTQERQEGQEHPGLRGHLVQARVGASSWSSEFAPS
Description: as §1, §2, §3

[4] = molecular target: T4, human A2B receptors (Homo sapiens, UniProt P29275); experiment: Binding at human A2B receptors expressed in HEK-293 cells vs [3H]ZM241385; conditions: for rA1/hA2B: ratio of Ki rat A1 to Ki human A2B
T4 construct: expressed in transfected cells; host or cells: HEK-293
T4 sequence (P29275 1-332): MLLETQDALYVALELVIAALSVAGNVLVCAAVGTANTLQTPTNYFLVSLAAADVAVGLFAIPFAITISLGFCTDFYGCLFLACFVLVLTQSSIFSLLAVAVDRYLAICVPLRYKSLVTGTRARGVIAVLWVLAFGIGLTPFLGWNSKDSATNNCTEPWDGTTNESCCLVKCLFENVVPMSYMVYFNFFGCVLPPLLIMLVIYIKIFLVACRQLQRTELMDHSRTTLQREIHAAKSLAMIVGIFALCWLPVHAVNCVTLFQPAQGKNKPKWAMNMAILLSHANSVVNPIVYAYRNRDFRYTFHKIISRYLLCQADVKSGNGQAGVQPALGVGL
Description: The plasmid was amplified in competent JM109 cells and plasmid DNA isolated using Wizard Megaprep columns (Promega Corp., Madison, WI).
Colonies were selected by growth of cells in 0.6 mg/mL G418. Transfected cells were maintained in DMEM supplemented with Hams F12 nutrient mixture (1/1), 10% newborn calf serum, 2 mM glutamine, and containing 50 IU/mL penicillin, 50 μg/mL streptomycin, and 0.2 mg/mL Geneticin (G418, Boehringer Mannheim, Indianapolis, IN).
Confluent monolayers of HEK-A2B cells were washed with PBS followed by ice-cold Buffer A (10 mM HEPES, 10 mM EDTA, pH 7.4) with protease inhibitors ([…] benzamidine, […], and […] of each aprotinin, pepstatin, and leupeptin). The cells were homogenized in a Polytron (Brinkmann) for 20 sec, centrifuged at 30,000g, and the pellets washed twice with buffer HE (10 mM HEPES, 1 mM EDTA, pH 7.4 with protease inhibitors). The final pellet was resuspended in buffer HE, supplemented with 10% sucrose and frozen in aliquots at −80°C. For binding assays, membranes were thawed and diluted 5–10-fold with HE to a final protein concentration of approximately 1 mg/mL. […] After incubating for 20 min at room temperature, 50 mL of 10 mg/mL Na-metabisulfite in water was added the quench the reaction. The reaction products were applied to a C18 HPLC column using 4 mM phosphate, pH 6.0/methanol. […] The incubation time was 3 h at 21°C. […] Membranes were filtered on Whatman GF/C filters using a Brandell cell harvester (Gaithersburg, MD) and washed three times over 15–20 sec with ice-cold buffer (10 mM Tris, 1 mM MgCl2, pH 7.4). […] Data from replicate experiments are tabulated as means ± SEM.
At A2B receptors, two radioligand binding assays (Table 1) were used. […] In order to evaluate selectivity, selected derivatives were subjected to standard binding assays at A1, A2A, and A3 receptors.

[5] = HEK-293 cells, vs [3H]ZM241385, read-out: Ki hA2B
[6] = rounded values given in text, read-out: Ki at human A2B receptors

Row | SMILES | Ki [1] | Ki [2] | Ki [3] | Ki [4, 5] | rA1/hA2B [4] | Ki [4, 6]
1 | CCCn1c(=O)c2[nH]c(-c3ccc(OCC(=O)NN4C(=O)C[C@H](NC(=O)C(F)(F)F)C4=O)cc3)nc2n(CCC)c1=O [Compound 11, 8-[4-[(Carboxymethyl)oxy]phenyl]-1,3-di-(n-propyl)xanthine N,N-[((2S)-Trifluoroacetamido)-succinyl]hydrazide] | 74.3 ± 6.6 nM | 1560 nM | 139 ± 32 nM | 30.2 ± 0.5 nM | 2.5 | 30 nM
2 | CCCn1c(=O)c2[nH]c(-c3ccc(OCC(=O)NN4C(=O)CCC(c5ccccc5)C4=O)cc3)nc2n(CCC)c1=O (stereo not shown) [Compound 12, 8-[4-[(Carboxymethyl)oxy]phenyl]-1,3-di-(n-propyl)xanthine N,N-[(2-Phenyl)glutaryl]hydrazide] | 3.87 ± 1.2 nM | 151 ± 99 nM | 21.4 ± 6.1 nM | 3.86 ± 0.7 nM | 1.0 | –
3 | CCCn1c(=O)c2[nH]c(-c3ccc(OCC(=O)NN4C(=O)C=C(C)C4=O)cc3)nc2n(CCC)c1=O [Compound 13, 8-[4-[(Carboxymethyl)oxy]phenyl]-1,3-di-(n-propyl)xanthine N,N-Citraconylhydrazide] | 203 ± 41 nM | 551 ± 106 nM | 1230 nM | 144 ± 11 nM | 1.4 | –
4 | CCCn1c(=O)c2[nH]c(-c3ccc(OCC(=O)NN4C(=O)C=C(c5ccccc5)C4=O)cc3)nc2n(CCC)c1=O [Compound 16, 8-[4-[(Carboxymethyl)oxy]phenyl]-1,3-di-(n-propyl)xanthine N,N-[(2-Phenyl)maleyl]hydrazide] | 225 ± 76 nM | 748 ± 234 nM | 1540 nM | 66.7 ± 37 nM | 3.4 | 67 nM
5 | CCCn1c(=O)c2[nH]c(-c3ccc(OCC(=O)NN4C(=O)C(c5ccccc5)=C(c5ccccc5)C4=O)cc3)nc2n(CCC)c1=O [Compound 17, 8-[4-[(Carboxymethyl)oxy]phenyl]-1,3-di-(n-propyl)xanthine N,N-[(1,2-Diphenyl)maleyl]hydrazide] | 95.8 ± 25.1 nM | 3450 nM | 2100 nM | 27.9 ± 8.5 nM | 3.4 | 28 nM
6 | CCCn1c(=O)c2[nH]c(-c3ccc(OCC(=O)NN4C(=O)CCCC4=O)cc3)nc2n(CCC)c1=O [Compound 22, 8-[4-[(Carboxymethyl)oxy]phenyl]-1,3-di-(n-propyl)xanthine N,N-Glutarylhydrazide] | 14 ± 2.3 nM | 200 ± 45 nM | 135 ± 39 nM | 22 ± 5.5 nM | 0.6 | –
7 | CCCn1c(=O)c2[nH]c(-c3ccc(OCC(=O)NN4C(=O)CC(O)CC4=O)cc3)nc2n(CCC)c1=O [Compound 23, 8-[4-[(Carboxymethyl)oxy]phenyl]-1,3-di-(n-propyl)xanthine N,N-(3-Hydroxy)glutarylhydrazide] | 41.2 ± 16.6 nM | 290 ± 88 nM | 164 ± 61 nM | 25.7 ± 5.5 nM | 1.6 | –
8 | CCCn1c(=O)c2[nH]c(-c3ccc(OCC(=O)NNC(=O)[C@H](CC(C)C)NC(=O)OC(C)(C)C)cc3)nc2n(CCC)c1=O [Compound 25, 8-[4-[(Carboxymethyl)oxy]phenyl]-1,3-di-(n-propyl)xanthine N-(N-tert-Butoxycarbonyl-L-leucinyl)-hydrazide] | 197 ± 67 nM | 195 ± 84 nM | 2750 nM | 47.5 ± 2.5 nM | 4.1 | 48 nM

Next, values leading:

Row | Ki [1] | Ki [2] | Ki [3] | Ki [4, 5] | rA1/hA2B [4] | Ki [4, 6] | SMILES
9 | 16 ± 0.5 nM | 498 ± 139 nM | 63.8 ± 21.3 nM | – | – | – | CCCn1c(=O)c2nc(-c3ccc(OCC(=O)NN)cc3)[nH]c2n(CCC)c1=O [Compound 4c]
10 | 134 ± 19 nM | 1060 nM | 813 ± 299 nM | 51 ± 7 nM | 2.6 | – | CCCn1c(=O)c2[nH]c(-c3ccc(OCC(=O)NNC(=O)C4CC=CCC4C(=O)O)cc3)nc2n(CCC)c1=O (stereo not drawn) [Compound 18a, 8-[4-[(Carboxymethyl)oxy]phenyl]-1,3-di-(n-propyl)xanthine N-[2-((1-Carboxy)-cis-4-cyclohexene)-carbonyl]hydrazide]
11 | 81.7 ± 31.2 nM | 1180 nM | 708 ± 169 nM | 78.5 ± 20.5 nM | 1.0 | – | CCCn1c(=O)c2[nH]c(-c3ccc(OCC(=O)NNC(=O)C4=C(C(=O)O)CCC4)cc3)nc2n(CCC)c1=O [Compound 19a, 8-[4-[(Carboxymethyl)oxy]phenyl]-1,3-di-(n-propyl)xanthine N-[2-((1-Carboxy)-1-cyclopentene)-carbonyl]hydrazide]
12 | 41.3 ± 6.4 nM | 308 ± 88 nM | 1160 nM | 21.5 ± 1.5 nM | 1.9 | – | CCCn1c(=O)c2[nH]c(-c3ccc(OCC(=O)NN4C(=O)C5=C(CCC5)C4=O)cc3)nc2n(CCC)c1=O [Compound 19b, 8-[4-[(Carboxymethyl)oxy]phenyl]-1,3-di-(n-propyl)xanthine N,N-(1-Cyclopentene-1,2-dicarbonyl)-hydrazide]
13 | 61.9 ± 11.3 nM | 245 ± 45 nM | 415 ± 157 nM | 35.8 ± 0.7 nM | 1.7 | – | CCCn1c(=O)c2[nH]c(-c3ccc(OCC(=O)NN4C(=O)C5=C(CCCC5)C4=O)cc3)nc2n(CCC)c1=O [Compound 20b, 8-[4-[(Carboxymethyl)oxy]phenyl]-1,3-di-(n-propyl)xanthine N,N-(3,4,5,6-Tetrahydrophthaloyl)-hydrazide]
14 | 70.8 ± 30.9 nM | 430 ± 44 nM | 872 ± 412 nM | 24.8 ± 7.3 nM | 2.9 | 25 nM | CCCn1c(=O)c2[nH]c(-c3ccc(OCC(=O)NNC(=O)[C@H](CCC(=O)O)NC(=O)C(F)(F)F)cc3)nc2n(CCC)c1=O [Compound 24a, 8-[4-[(Carboxymethyl)oxy]phenyl]-1,3-di-(n-propyl)xanthine N-[(4-Carboxy-(2S)-Trifluoroacetamido)-n-butanoyl]hydrazide]
